Data reported in ChEMBL document CHEMBL3301448, “MMV Malaria Box screening against Toxoplasma gondii and Entamoeba histolytica”.

Tests used:
Entamoeba histolytica = assay: MMV: Primary screening was performed with each compound at a 30 uM final concentration and in triplicate in sealed 96-well polystyrene microtiter plates. Parasite inocula (100 ul) comprising 20000 parasites/ml were added to each well and grown at 37 degrees C in a humidified atmosphere of 5% CO2 for 72 h. Positive controls consisted of metronidazole at 1 mg/ml. The growth of E. histolytica trophozoites in each well was determined microscopically by measuring the diameters of the confluent cells in drug-containing wells relative to those in the nega- tive-control wells.; type: functional, organism-based
Toxoplasma gondii = assay: MMV: A total of 100ul of inoculum was added to each well (parasite/cell ratio, ~10:1; final volume, 200 ul). Six hours after inoculation, nonadherent parasites were removed, and 100 ul of complete DMEM (1% penicillin-streptomycin, 3% FBS) supplemented with inhibitors at different concentrations (2-fold serial dilutions starting from 30 uM) was added to all except the negative-control wells. Positive controls, consisting of pyrimethamine (PYR) and sulfadiazine (SDZ) (20-mg/ml stocks in DMSO), were tested at a 2mg/ml final concentration. Each test was performed in triplicate.; type: functional, organism-based; conditions: 6 h

| SMILES | IC50 (Entamoeba histolytica) [µM] | IC50 (Toxoplasma gondii) [µM] |
| --- | --- | --- |
| COc1ccc2c(c1)C1(Nc3ccccc3-c3nc4ccccc4n31)C(=O)N2 (stereo not drawn) | > 30 | > 30 |
| CCOc1cc(CNC(C)C(O)c2ccccc2)cc(Cl)c1OCC (stereo not drawn) | > 30 | > 30 |
| CCOc1c(Cl)cc(CNCC(O)c2ccccc2)cc1OC (stereo not drawn) | > 30 | > 30 |
| OC(CNCC1CCCO1)Cn1c2ccc(Cl)cc2c2cc(Cl)ccc21 (stereo not drawn) | > 30 | > 30 |
| COc1ccc2nc(C)cc(Nc3ccccc3O)c2c1 | > 30 | > 30 |
| CCn1nc(-c2ccc(C(=O)OC)cc2)nc2c(=O)n(C)c(=O)nc1-2 | > 30 | > 30 |
| Cc1cc(NC(=O)c2cccc(C(F)(F)F)c2)n(-c2nc(-c3ccc4c(c3)OCO4)cs2)n1 | > 30 | > 30 |
| CC1(c2ccccc2)Nc2ccccc2-c2nc3ccccc3n21 (stereo not drawn) | > 30 | > 30 |
| COc1cccc(C2(C)Nc3ccccc3-c3nc4ccccc4n32)c1 (stereo not drawn) | > 30 | > 30 |
| CC(C)CNC(=O)c1c(N)n(CCc2ccccc2F)c2nc3ccccc3nc12 | > 30 | 26.8 |
| CC(C)(C)CC(C)(C)NCC(O)COc1ccc(Cl)cc1Cl (stereo not drawn) | > 30 | > 30 |
| Cc1cccc(-n2ncc3c(O)nc(-n4nc(C)cc4NC(=O)c4cc5ccccc5o4)nc32)c1 | > 30 | > 30 |
| O=C(Nc1ccc(Br)cc1)Nc1cccc(Cl)c1 | > 30 | > 30 |
| Oc1ccccc1CN1CCC2(CCCN(Cc3ccccc3F)C2)C1 (stereo not drawn) | > 30 | > 30 |
| COc1cccc(Nc2nc(NCCO)c3ccccc3n2)c1 | > 30 | > 30 |
| Cc1ccc(-c2cc(C(=O)Nc3ccc(S(=O)(=O)N4CCCCC4)cc3)[nH]n2)c(O)c1 | > 30 | > 30 |
| COCCNCC(O)Cn1c2ccc(Cl)cc2c2cc(Cl)ccc21 (stereo not drawn) | > 30 | > 30 |
| COc1ccc(N2CCN(C(CNC(=O)C3CCCCC3)c3ccc4c(c3)OCO4)CC2)cc1 (stereo not drawn) | > 30 | 26.6 |
| COc1ccc2nc(C)cc(Nc3ccc(Cl)cc3)c2c1 | > 30 | > 30 |
| O=C(NC1CCN(Cc2ccccc2)CC1)c1cc(-c2ccncc2)nc2ccc(Cl)cc12 | > 30 | > 30 |
| CCC(O)c1ccc(Br)cc1NC(=O)c1cccc(Cl)c1 (stereo not drawn) | > 30 | > 30 |
| COc1cc2cc(C(=O)Nc3ccccc3)c(N)nc2cc1OC | > 30 | > 30 |
| Cn1c(=O)c2cc(C(=O)NCCCN3CCCCCC3)sc2c2ccccc21 | > 30 | > 30 |

| SMILES | IC50 (Entamoeba histolytica) [µM] | IC50 (Toxoplasma gondii) [µM] |
| --- | --- | --- |
| Cc1[nH]c(-c2ccc(F)cc2)cc1C(=O)NC1CCN(Cc2ccccc2)CC1 | > 30 | > 30 |
| Cc1sc2ncnc(Sc3nc4ccccc4[nH]3)c2c1C | > 30 | 13.9 |
| COc1ccc(CCN2CCC(CN(C)Cc3cnn(-c4ccccc4)c3)CC2)cc1 | > 30 | > 30 |
| O=C(NC(c1ccccc1)c1ccc2cccnc2c1O)c1ccccc1 (stereo not drawn) | > 30 | > 30 |
| Oc1ccccc1CN1CCN(C(c2ccccc2)c2ccccc2)CC1 | > 30 | > 30 |
| O=C(NC1CCCC1)c1ccc(N2CCC(NCc3cccc(C(F)(F)F)c3)CC2)cc1 | > 30 | > 30 |
| CCOc1cc(Br)c(C(C)NC(=O)c2cccc(OC)c2)cc1OCC (stereo not drawn) | > 30 | > 30 |
| CCN(CC)CCn1c(=N)n(CC(O)c2ccc(Cl)c(Cl)c2)c2ccccc21 (stereo not drawn) | > 30 | > 30 |
| CCOc1cc(Cl)c(C(C)NC(=O)c2cccc(OC)c2)cc1OCC (stereo not drawn) | > 30 | > 30 |
| CC(=O)Nc1nnc(SCc2c(C)cc(C(C)(C)C)cc2C)s1 | > 30 | > 30 |
| Cc1ccc(Cl)cc1N1CCN(CCCNC(=O)C2CCN(c3nc4ccccc4[nH]3)CC2)CC1 | > 30 | > 30 |
| O=C(Nc1ccc(CN2CCOCC2)cc1)c1ccc(-c2cc(Cl)ccc2Cl)o1 | > 30 | > 30 |
| Cc1ccc(CSCc2ccc(C(=O)NC3CC3)o2)cc1 | > 30 | 22.3 |
| CN1CCN(c2c3c(c(C#N)c4nc5ccccc5n24)CCC3)CC1 | > 30 | > 30 |
| Cc1cc(Nc2cccc(F)c2)nc(NCc2ccccc2)n1 | > 30 | > 30 |
| CCOc1ccc(C2N(C)c3ccccc3N2C)cc1 | > 30 | > 30 |
| COCCn1c(C)nc2ccccc2c1=O | > 30 | > 30 |
| O=C(Nc1cccc(-c2nc3ccccc3[nH]2)c1)c1cccc(NC(=O)c2ccco2)c1 | > 30 | > 30 |
| O=C(NC1CCN(Cc2ccccc2)CC1)c1cc(-c2cccnc2)nc2ccc(Cl)cc12 | > 30 | > 30 |
| CCN(Cc1ccccc1)C1CCN(Cc2cc(Br)ccc2O)CC1 | > 30 | > 30 |
| CC(=O)NCCc1nc2ccccc2n1Cc1ccc(C(C)C)cc1 | > 30 | > 30 |
| COc1nc(Nc2ccc(C(C)C)cc2)nc(OC)n1 | > 30 | > 30 |
| CCN(CC)CCNc1ncnc2c1[nH]c1ccc(Br)cc12 | > 30 | > 30 |

| SMILES | IC50 (Entamoeba histolytica) [µM] | IC50 (Toxoplasma gondii) [µM] |
| --- | --- | --- |
| CCOc1cccc(C(=O)Nc2ccc(-c3nc4ccccc4[nH]3)cc2)c1 | > 30 | > 30 |
| Clc1cc(Br)ccc1-c1ccc(CNCC2CCNCC2)o1 | > 30 | > 30 |
| CCCC(c1nnnn1C1CCCCC1)N1CCN(C(=O)c2ccco2)CC1 (stereo not drawn) | > 30 | > 30 |
| COc1ccc(-c2nonc2NC(=O)c2cccc(Cl)c2)cc1OC | > 30 | > 30 |
| Cc1cc(NC(=O)c2ccc(-c3ccccc3)cc2)no1 | > 30 | 21.1 |
| CC(C)(C)C(=O)Nc1ccc(C(=O)Nc2cccc(-c3nc4ccccc4[nH]3)c2)cc1 | > 30 | > 30 |
| COc1ccc(-c2nonc2NC(=O)c2cccc(C)c2)cc1OC | > 30 | > 30 |
| COc1cccc(-c2nn(C)c3sc(C(=O)NCCN4CCN(c5ccccc5F)CC4)cc23)c1 | > 30 | > 30 |
| O=C(Nc1ccc(N2CCN(Cc3ccccc3)CC2)cc1)c1cccs1 | > 30 | > 30 |
| Cc1ccc(CN2CCC(C(=O)Nc3ccc(-c4cc5ccccc5[nH]4)cc3)CC2)o1 | > 30 | > 30 |
| O=C(Nc1ccc(N2CCCCC2)c(Cl)c1)c1ccc(Br)o1 | > 30 | > 30 |
| Cc1cc(C)c2nc(N3CCC(C(=O)NCCCN4CCC(N5CCCCC5)CC4)CC3)sc2c1 | > 30 | > 30 |
| CCOc1cc2c(cc1OCC)C(c1cc(C)c(O)c(C)c1)NCC2 (stereo not drawn) | > 30 | 12.8 |
| O=C1CC(O)(C(F)(F)C(F)(F)F)Oc2ccccc21 (stereo not drawn) | > 30 | > 30 |
| COc1cc(SC)ccc1C(=O)N1CCCC(C)C1 (stereo not drawn) | > 30 | > 30 |
| CC(C)(C)c1ccc(C(=O)Nc2nc3ccccc3s2)cc1 | > 30 | > 30 |
| CC(C)c1ccc(CNCC(O)c2ccccc2)cc1 (stereo not drawn) | > 30 | 18.1 |
| CC1CC(C)CN(C(=O)c2ccc(Cl)cc2Cl)C1 (stereo not drawn) | > 30 | > 30 |
| COc1ccccc1CNC(=O)C1c2ccccc2C(=O)N(CC(C)C)C1c1cccs1 (stereo not drawn) | > 30 | > 30 |
| OC(CNC1CCCC1)Cn1c2ccccc2c2ccccc21 (stereo not drawn) | > 30 | > 30 |
| COc1ccc(C2N(C)c3ccccc3N2C)cc1 | > 30 | > 30 |
| Cc1ccc(NC(=O)Nc2cccc(Cl)c2)cc1F | > 30 | > 30 |
| CC(C)OCc1cc(CN2CCN(c3cccc(Cl)c3)CC2)c(O)c2ncccc12 | > 30 | > 30 |

| SMILES | IC50 (Entamoeba histolytica) [µM] | IC50 (Toxoplasma gondii) [µM] |
| --- | --- | --- |
| O=C(Nc1ccc(F)c(Cl)c1)Nc1ccc(Cl)c(Cl)c1 | > 30 | 26.5 |
| O=c1nc(C=Cc2ccc(Cl)cc2)oc2ccccc12 | > 30 | > 30 |
| O=C(NCc1ccco1)C1CCN(S(=O)(=O)c2ccc(Br)cc2)CC1 | > 30 | > 30 |
| Clc1ccc2[nH]c3c(NCCCN4CCOCC4)ncnc3c2c1 | > 30 | > 30 |
| COc1ccc(Nc2nc(NCc3ccccc3)c3ccccc3n2)cc1 | > 30 | > 30 |
| COc1cc2c(cc1OC)C1=NNC(=O)C1=NC(C)(C)C2 | > 30 | > 30 |
| Oc1c2c(nc3cc(-c4ccccc4)nn13)CCCC2 | > 30 | 26.2 |
| CCCc1c(C)nc2ccccc2c1O | > 30 | > 30 |
| CCCCc1c(C)nc2c(OC)cccc2c1O | > 30 | > 30 |
| CCOc1c(Cl)cc(CNC(C)C(O)c2ccccc2)cc1OC (stereo not drawn) | > 30 | > 30 |
| CCOC(=O)C1CCN(C(=O)CN2C(=O)c3ccccc3C2c2c[nH]c3ccccc23)CC1 (stereo not drawn) | > 30 | > 30 |
| CCOc1ccc(CCNC(=O)c2cccs2)cc1OCC | > 30 | > 30 |
| CCCN(CCC)CCCNC(=O)c1cc2c(-c3ccc(OC)c(OC)c3)nn(C)c2s1 | > 30 | > 30 |
| Cc1cc(N2CCN(C3CCCC3)CC2)n2c(nc3ccccc32)c1C#N | > 30 | > 30 |
| CN1c2ccccc2N(C)C1c1ccc2c(c1)OCO2 | > 30 | > 30 |
| CCCCOc1ccc(C(=O)Nc2cc(C)on2)cc1 | > 30 | > 30 |
| O=C(NCC1Cc2cccc(-c3ccncc3)c2O1)c1csc2c1CCCC2 (stereo not drawn) | > 30 | > 30 |
| CCc1ccc(Nc2cc(C)nc3nc(C)nn23)cc1 | > 30 | > 30 |
| CCN(CC)S(=O)(=O)c1ccc(-c2csc(Nc3ccc(C)c(C)c3)n2)cc1 | > 30 | > 30 |
| C=CCc1c(C)nc2ccccc2c1O | > 30 | > 30 |
